Consider 1 molecule from PMC6694155, “PTPσ inhibitors promote hematopoietic stem cell regeneration” (Nature Communications, 2019).

Several values for one entry are separate records, joined by “and”; a condition that tells them apart may be missing. Equal values may be shown once. Entries after “also recorded” stand apart in the source; their conditions may differ.

The subject of test [1] is adult C57BL/6 mice. Briefly: 30 day systemic treatment of non-irradiated mice (blood counts, BM HSC/progenitors, CFCs). Format: in vivo, mouse. On the procedure:
Femurs and tibiae were collected from killed C57BL/6 or Ptprs^−/− mice and flushed with IMDM containing 10% FBS and 1% penicillin–streptomycin for BM cells. PB was collected through sub-mandibular puncture. Cells were filtered through a 40 μM strainer and then treated with ACK lysis buffer (Sigma Aldrich) before antibody staining for flow cytometry. For KSL and CD150^+CD48^−KSL cell analysis, BM cells were stained with allophycocyanin (APC)-and Cy7-conjugated anti-mouse Sca1 (BD Biosciences, #560654, 1:100), phycoerythrin (PE)-conjugated anti-mouse c-kit (BD Biosciences, #553355, 1:100), V450 lineage cocktail (BD Biosciences, 561301, 1:10), Alexa Fluor 488-conjugated anti-mouse CD48 (BioLegend, #103414, 1:100), and Alexa Fluor 647-conjugated anti-mouse CD150 (Biolegend, #115918, 1:100) antibodies. For MEP, CMP, GMP, and CLP cell analysis, BM cells were stained with APC-Cy7-conjugated anti-mouse Sca1 (BD Biosciences, #560654, 1:100), PE-conjugated anti-mouse ckit (BD Biosciences, #553355, 1:100), V450 lineage cocktail (BD Biosciences, #561301; 1:10), Alexa Fluor 488-conjugated anti-mouse CD127 (BD Biosciences, #561533, 1:100), Alexa Fluor 647-conjugated anti-mouse CD34 (BD Biosciences, #560230; 1:100), and BV605-conjugated anti-mouse CD16/32 antibodies (BD Biosciences, #563006; 1:100). For donor engraftment analysis in transplanted mice, PB or BM cells were stained with BV605-conjugated anti-mouse CD45.2 (BioLegend, #109841, 1:100), fluorescein isothiocyanate (FITC)-conjugated anti-mouse CD45.1 (BD Biosciences, #553775, 1:100), PE-conjugated anti-mouse Mac-1 (BD Biosciences, #557397, 1:100) and anti-mouse Gr1 (BD Biosciences, #553128, 1:100), V450-conjugated anti-mouse CD3 (BD Biosciences, #561389, 1:100), and APC-Cy7-conjugated anti-mouse B220 (BD Biosciences, 552094, 1:100) antibodies.
CFC assays (colony-forming unit-granulocyte monocyte), burst-forming unit-erythroid, and CFU-GEMM were performed using MethoCult GF M3434 (Stemcell Technologies)[6]. For all in vitro assays, BM CD34^−KSL cells, KSL cells, and Lin^− cells were cultured in TSF media (IMDM, 10% FBS, 1% pen-strep, 20 ng/mL recombinant mouse TPO, 125 ng/mL recombinant mouse SCF, 50 ng/mL recombinant mouse Flt3 ligand). Recombinant mouse SCF, Flt3 ligand, and TPO were purchased from R&D Systems. For competitive repopulation assays, BM cells were isolated from donor 10–12-week-old female CD45.2^+ mice. Recipient 10-week-old female CD45.1^+ B6.SJL mice were irradiated with 950 cGy TBI using a Cs137 irradiator and donor BM cells were administered via tail vein injection along with a competing dose of 1 × 10^5 non-irradiated host BM cells. Multilineage donor hematopoietic cell engraftment was measured in the PB by flow cytometry.

Test [2] concerns p250GAP in BM lin− cells. Briefly: p250GAP phospho-tyrosine sandwich ELISA. The format is cell-based, mouse. On the procedure: Clear, pre-blocked Protein A-coated Microtiter wells (Fisher Scientific, #15132) were incubated with ARHGAP32 polyclonal antibody (Bioss, #bs-9296R, 1:500) in antibody dilution buffer (150 mM NaCl, 25 mM HEPES pH 7.2, 0.5% bovine serum albumin, 0.05% Tween 20) for 3 h at room temperature (RT). Subsequently, the plate was washed three times and phosphorylated p250GAP from BM lin^− cell lysate was added to each well. BM lin^− cells were collected in NP40 buffer (ThermoFisher Scientific; FNN0021) supplemented with 1× complete, Mini, EDTA-free Protease Inhibitor Cocktail (Sigma Aldrich; 4693159001) and 1× PhosSTOP (Sigma Aldrich; 4906845001). Following incubation for 2 h at 4 °C, the plate was completely emptied (without washing) and exposed to 50 μL of a fixation solution (0.5% formaldehyde in 300 mM NaCl, 20 mM sodium phosphate buffer, pH 7) for 10 min. The plate-bound, phosphorylated p250GAP was measured by a specific anti-phospho-tyrosine peroxidase-coupled antibody (Sigma Aldrich, #A5964-1VL, 1:500) in antibody dilution buffer. Incubation was for 1 h at RT. Peroxidase activity was measured by a Tecan Infinity plate reader using BM Chemiluminescence ELISA Substrate (Sigma Aldrich, #11582950001).

The target in test [3] is T1, LMPTP-A (Low Molecular Weight Protein Tyrosine Phosphatase A) (Homo sapiens, UniProt P24666).
T1 construct: purchased Eurofins Pharma Discovery Services UK
T1 sequence (P24666 whole entry, species assumed): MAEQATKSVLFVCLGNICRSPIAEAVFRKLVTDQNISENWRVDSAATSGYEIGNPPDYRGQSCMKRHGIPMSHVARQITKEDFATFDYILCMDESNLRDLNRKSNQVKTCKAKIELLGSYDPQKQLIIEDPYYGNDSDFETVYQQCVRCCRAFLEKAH
Briefly: PhosphataseProfiler screen: LMPTP-A. The format is biochemical. Particulars: replicates. On the procedure:
Compound DJ001 was evaluated in a PhosphataseProfiler™ screen at 10 μM and 1 μM (2.7 μg/mL and 0.27 μg/mL) concentrations at Eurofins Pharma Discovery Services UK (Study number UK022-0004033) against a panel of 21 Phosphatases. In each experiment, the respective reference antagonist/agonist was tested directly with DJ001 and the data were compared with historical values determined at Eurofins. DJ001 compound inhibition was calculated as percentage inhibition of the enzymatic activity compared with control.

The test system of test [4] is BM KSL cells. Briefly: Gene expression of pro- and anti-apoptotic genes in irradiated BM KSL cells (qPCR). The format is cell-based, mouse. On the set-up: key to Figure 3g: gene expression, Bax / Figure 3g: gene expression, Bcl-2 / Figure 3g: gene expression, Bcl-xL / Figure 3g: gene expression, Bim / Figure 3g: gene expression, Mcl1: fold change, 2^-ΔΔCt vs media-treated non-irradiated KSL, Gapdh-normalized. The source says:
For all studies, RNA was isolated using the Qiagen RNeasy micro kit (Qiagen). RNA was reverse transcribed using the High-Capacity cDNA Reverse Transcription Kit (ThermoFisher Scientific) and was then used for quantitative PCR with SYBR Select Master Mix (Life Technologies). Values were normalized to housekeeping gene Gapdh/GAPDH and given as ΔΔCt values normalized to media-treated, non-irradiated BM KSL cells (2(−ΔΔC(T)) method)[67].

Where [5] appears, read: 30 day treatment of non-irradiated mice, individual mice.
The mark [6] stands for this setting: 30 day treatment of non-irradiated mice, replicates.
Where [7] appears, read: BM KSL cells, 12 h post 300 cGy.
The mark [8] stands for this setting: irradiated BM KSL cells, qPCR, replicates.

In the case of `O=C(/C=C\Nc1cccc([N+](=O)[O-])c1)c1ccccc1` [DJ001, (Z)-3-((3-nitrophenyl)amino)-1-phenylprop-2-en-1-one], in test [1] (setting [5]), the “Supplementary Figure 3c (center left panel): blood counts” value is 0.82 and 1.16 and 1.29 and 0.87 and 1.1 and 1.4 and 0.98; the “Supplementary Figure 3c (center right panel): blood counts” value was 4.18 and 4.99 and 3.87 and 3.78 and 3.15 and 4.96 and 3.86; the “Supplementary Figure 3c (left panel): blood counts” value was 5.14 and 6.28 and 5.54 and 5.44 and 4.5 and 5.46 and 7.08; the “Supplementary Figure 3c (right panel): blood counts” value is 982 and 1048 and 1026 and 1004 and 1184 and 1209 and 1110. Moreover, in test [1] (setting [5]), the “Supplementary Figure 3d (center panel): BM HSC/progenitors” value is 3.5181 and 6.1488 and 9.9568 and 8.316 and 4.0147 and 7.046 and 6.2794; the “Supplementary Figure 3d (left panel): BM HSC/progenitors” value is 1.912 and 2.52 and 3.92 and 3.024 and 2.624 and 2.168 and 3.376; the “Supplementary Figure 3d (right panel): BM HSC/progenitors” value was 3.375 and 1.086 and 2.798 and 5.06 and 3.054 and 1.789 and 4.039. In test [1] (setting [6]), the “Supplementary Figure 3e: BFU-E” value was determined as 0; the “Supplementary Figure 3e: CFU-GEMM” value is 0 (3×) and 1 (2×) and 2; the “Supplementary Figure 3e: CFU-GM” value was 10 and 7 and 8 and 6 (2×) and 9. Moreover, the “complete blood counts, BM HSC or progenitor cell content, BM CFCs vs vehicle” value in test [1] (non-irradiated mice, 5 mg/kg subcutaneously every other day for 30 days, 5 mg/kg) is on record as “no significant changes; also recorded: caused no expansion of HSCs, progenitors, or mature blood counts”. Moreover, the “phosphorylation of p250GAP” value in test [2] (1 µg/mL DJ001) was “significantly increased phosphorylation of p250GAP”. For the same molecule, the “Figure 3a: p250GAP phosphorylation (phospho-tyrosine ELISA)” value in test [2] (DJ001 vs media, individual replicates) is 62.785 and 39.77 and 58.721 and 55.943 and 45.893 and 49.264 and 56.331. In addition, the “Supplementary Figure 1: LMPTP-A activity” value in test [3] (0.27 g/mL DJ001) is 100 and 90 and 93. In test [3] (2.7 g/mL DJ001), the “Supplementary Figure 1: LMPTP-A activity” value is 78 and 84 and 89. Also, in test [4] (setting [7]), the “expression of Bim, Bax, Puma, Bcl2” value is reported as “no effect”; the “expression of Mcl-1 and Bcl2l1” value is “increased the expression”. Moreover, in test [4] (setting [8]), the “Figure 3g: gene expression, Bax” value is 2.95 and 3.78 and 1.75; the “Figure 3g: gene expression, Bcl-2” value was 1.73 and 1.94 and 1.28 and 1.59 and 1.76 and 1.06; the “Figure 3g: gene expression, Bcl-xL” value was 4.94 and 3.23 and 6.87 and 4.82 and 3.79 and 5.97; the “Figure 3g: gene expression, Bim” value was 2.95 and 3.78 and 2.75. Besides, in test [4] (setting [8]), the “Figure 3g: gene expression, Mcl1” value is 1.95 and 1.78 and 2.55 and 0.81 and 1.62 and 1.96; the “Figure 3g: gene expression, Puma” value is 2.95 and 1.78 and 1.75.
